Laboratory results: PubChem BioAssay AID248 (DTP/NCI, 2004)
Where “and” joins values, the source holds several entries; their conditions need not be identical. Identical values can stand only once. Toxic doses and inconclusive results are not listed. Cut-off read from the data, not from the text of the source: active = T/C of 150% or more; inactive = T/C below 125%.

Tested on: L1210 leukemia ip in BDF1 mice, survival T/C
Test: NCI In Vivo Anticancer Drug Screen. Data for tumor model L1210 Leukemia (intraperitoneal) in B6D2F1 (BDF1) mice
Settings: higher = longer survival
Summary of the method: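 Value reflects the ratio of survival in compound-treated mice to survival in vehicle-treated controls, with both groups carrying the same transplanted tumor.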

[1] = endpoint: mean survival time, dose: 50.0 mg/kg/injection, schedule: Q01DX009 (ip), vehicle: saline
[2] = endpoint: mean survival time, dose: 100.0 mg/kg/injection, schedule: Q01DX009 (ip), vehicle: other
[3] = endpoint: mean survival time, dose: 100.0 mg/kg/injection, schedule: Q01DX009 (ip), vehicle: Klucel (hydroxypropylcellulose) (HPC)
[4] = endpoint: mean survival time, dose: 200.0 mg/kg/injection, schedule: Q01DX009 (ip), vehicle: Klucel (hydroxypropylcellulose) (HPC)
[5] = endpoint: mean survival time, dose: 400.0 mg/kg/injection, schedule: Q01DX009 (ip), vehicle: Klucel (hydroxypropylcellulose) (HPC)
[6] = endpoint: mean survival time, dose: 100.0 mg/kg/injection, schedule: Q04DX003 (ip), vehicle: Klucel (hydroxypropylcellulose) (HPC)
[7] = endpoint: mean survival time, dose: 200.0 mg/kg/injection, schedule: Q04DX003 (ip), vehicle: Klucel (hydroxypropylcellulose) (HPC)
[8] = endpoint: mean survival time, dose: 400.0 mg/kg/injection, schedule: Q04DX003 (ip), vehicle: Klucel (hydroxypropylcellulose) (HPC)
[9] = endpoint: mean survival time, dose: 100.0 mg/kg/injection, schedule: Q04DX002 (ip), vehicle: saline with Tween-80
[10] = endpoint: mean survival time, dose: 200.0 mg/kg/injection, schedule: Q04DX002 (ip), vehicle: saline with Tween-80
[11] = endpoint: mean survival time, dose: 400.0 mg/kg/injection, schedule: Q04DX002 (ip), vehicle: saline with Tween-80
[12] = endpoint: mean survival time, dose: 100.0 mg/kg/injection, schedule: Q04DX002 (ip), vehicle: Klucel (hydroxypropylcellulose) (HPC)
[13] = endpoint: mean survival time, dose: 200.0 mg/kg/injection, schedule: Q04DX002 (ip), vehicle: Klucel (hydroxypropylcellulose) (HPC)
[14] = endpoint: mean survival time, dose: 100.0 mg/kg/injection, schedule: Q01DX001 (ip), vehicle: carboxymethylcellulose (CMC)
[15] = endpoint: mean survival time, dose: 200.0 mg/kg/injection, schedule: Q01DX001 (ip), vehicle: carboxymethylcellulose (CMC)
[16] = endpoint: mean survival time, dose: 400.0 mg/kg/injection, schedule: Q01DX001 (ip), vehicle: carboxymethylcellulose (CMC)
[17] = endpoint: mean survival time, dose: 100.0 mg/kg/injection, schedule: Q01DX001 (ip), vehicle: saline
[18] = endpoint: mean survival time, dose: 200.0 mg/kg/injection, schedule: Q01DX001 (ip), vehicle: saline
[19] = endpoint: mean survival time, dose: 400.0 mg/kg/injection, schedule: Q01DX001 (ip), vehicle: saline
[20] = endpoint: mean survival time, dose: 100.0 mg/kg/injection, schedule: Q04DX003 (ip), vehicle: saline with Tween-80
[21] = endpoint: mean survival time, dose: 200.0 mg/kg/injection, schedule: Q04DX003 (ip), vehicle: saline with Tween-80
[22] = endpoint: mean survival time, dose: 400.0 mg/kg/injection, schedule: Q04DX003 (ip), vehicle: saline with Tween-80
[23] = endpoint: mean survival time, dose: 100.0 mg/kg/injection, schedule: Q01DX009 (ip), vehicle: saline with Tween-80
[24] = endpoint: mean survival time, dose: 200.0 mg/kg/injection, schedule: Q01DX009 (ip), vehicle: saline with Tween-80

Measured: T/C

CN(N=O)P(=O)(Nc1ccccc1)Nc1ccccc1
inactive: endpoint: mean survival time, dose: 25.0 mg/kg/injection, schedule: Q01DX009 (ip), vehicle: saline 111 % of control | [1] 117 % of control | endpoint: mean survival time, dose: 66.0 mg/kg/injection, schedule: Q01DX009 (ip), vehicle: other 103 % of control | [2] 100 % of control | endpoint: mean survival time, dose: 100.0 mg/kg/injection, schedule: Q04DX003 (ip), vehicle: saline sonified 122 % of control | endpoint: mean survival time, dose: 150.0 mg/kg/injection, schedule: Q01DX009 (ip), vehicle: other 88 % of control

O=C(Nc1ccc(Nc2ccccc2)cc1)Nc1ccccc1F
inactive: [3] 97 % of control | [4] 95 % of control | [5] 97 % of control

O=C(CCl)Nc1ccc(SSc2ccc(NC(=O)CCl)cc2)cc1
inactive: endpoint: mean survival time, dose: 50.0 mg/kg/injection, schedule: Q04DX003 (ip), vehicle: Klucel (hydroxypropylcellulose) (HPC) 95 % of control | [6] 101 % of control | [7] 101 % of control

CCCCCCCCCCCCCCCCN(C)S(=O)(=O)c1ccc(Cl)c(C(F)(F)F)c1
inactive: [6] 98 % of control | [7] 101 % of control | [8] 96 % of control

CC(=O)OCC1OC(OC2=C(c3ccccc3)C(=O)C(OC3OC(COC(C)=O)C(OC(C)=O)C(OC(C)=O)C3OC(C)=O)=C(c3ccccc3)C2=O)C(OC(C)=O)C(OC(C)=O)C1OC(C)=O (stereo not given)
inactive: [9] 91 % of control | [10] 91 % of control | [11] 95 % of control

Cc1ccc(S(=O)(=O)N(c2ccccc2)C(C)C(=O)c2ccccc2)cc1 (stereo not given)
inactive: endpoint: mean survival time, dose: 100.0 mg/kg/injection, schedule: Q01DX001 (ip), vehicle: other 104 % of control | endpoint: mean survival time, dose: 200.0 mg/kg/injection, schedule: Q01DX001 (ip), vehicle: other 92 % of control | endpoint: mean survival time, dose: 400.0 mg/kg/injection, schedule: Q01DX001 (ip), vehicle: other 95 % of control

O=C(O)c1cc([N+](=O)[O-])cc([N+](=O)[O-])c1O
inactive: [9] 113 % of control | [10] 104 % of control

Cc1cc(Cl)ccc1OCC(=O)Oc1c(Cl)c(Cl)c(Cl)c(Cl)c1Cl
inactive: [12] 93 % of control | [13] 112 % of control

COC(=O)c1sc2ccccc2c1CC#N
inactive: [14] 103 % of control | [15] 86 % of control | [16] 103 % of control

CCOC(=O)CSC(=S)N(C)C
inactive: endpoint: mean survival time, dose: 100.0 mg/kg/injection, schedule: Q01DX001 (ip), vehicle: Klucel (hydroxypropylcellulose) (HPC) 102 % of control | [3] 95 % of control and 96 % of control and 111 % of control | [12] 102 % of control and 106 % of control | [6] 101 % of control | endpoint: mean survival time, dose: 200.0 mg/kg/injection, schedule: Q01DX001 (ip), vehicle: Klucel (hydroxypropylcellulose) (HPC) 102 % of control | [4] 97 % of control and 104 % of control and 89 % of control | [13] 102 % of control and 103 % of control | [7] 93 % of control | endpoint: mean survival time, dose: 400.0 mg/kg/injection, schedule: Q01DX001 (ip), vehicle: Klucel (hydroxypropylcellulose) (HPC) 96 % of control | [5] 89 % of control | endpoint: mean survival time, dose: 400.0 mg/kg/injection, schedule: Q04DX002 (ip), vehicle: Klucel (hydroxypropylcellulose) (HPC) 103 % of control and 104 % of control | [8] 93 % of control

COc1cccc(CNc2cccc([N+](=O)[O-])c2)c1OC
inactive: [3] 95 % of control | [6] 102 % of control | [4] 97 % of control | [7] 96 % of control | [5] 95 % of control | [8] 95 % of control

Cn1nnc(C(N)=O)n1
inactive: [17] 93 % of control | [18] 98 % of control | [19] 94 % of control

Cc1cccc([N+](=O)[O-])c1N
inactive: endpoint: mean survival time, dose: 50.0 mg/kg/injection, schedule: Q01DX001 (ip), vehicle: carboxymethylcellulose (CMC) 109 % of control | [14] 109 % of control | [15] 113 % of control | [16] 115 % of control

Cc1cccc(OCC(O)CN(Cc2ccsc2)c2ccccn2)c1 (stereo not given)
inactive: [12] 94 % of control | [13] 106 % of control

CC(=O)NN(CCN(NC(C)=O)C(C)=O)C(C)=O
inactive: endpoint: mean survival time, dose: 100.0 mg/kg/injection, schedule: Q04DX003 (ip), vehicle: saline 104 % of control | endpoint: mean survival time, dose: 200.0 mg/kg/injection, schedule: Q04DX003 (ip), vehicle: saline 95 % of control | endpoint: mean survival time, dose: 400.0 mg/kg/injection, schedule: Q04DX003 (ip), vehicle: saline 101 % of control

NC(=S)N=Nc1ccc(O)cc1
inactive: endpoint: mean survival time, dose: 50.0 mg/kg/injection, schedule: Q01DX001 (ip), vehicle: saline 103 % of control | [17] 100 % of control | [18] 100 % of control | [19] 109 % of control

CCOC(=O)c1[nH]c(C)nc1/N=N/N(C)C
inactive: endpoint: median survival time, dose: 25.0 mg/kg/injection, schedule: Q01DX009 (ip), vehicle: Klucel (hydroxypropylcellulose) (HPC) 116 % of control

CN(C)c1ccc(C(=O)O)cc1
inactive: [2] 93 % of control | endpoint: mean survival time, dose: 100.0 mg/kg/injection, schedule: Q04DX003 (ip), vehicle: other 104 % of control | endpoint: mean survival time, dose: 200.0 mg/kg/injection, schedule: Q01DX009 (ip), vehicle: other 87 % of control | endpoint: mean survival time, dose: 200.0 mg/kg/injection, schedule: Q04DX003 (ip), vehicle: other 107 % of control | endpoint: mean survival time, dose: 400.0 mg/kg/injection, schedule: Q01DX009 (ip), vehicle: other 96 % of control | endpoint: mean survival time, dose: 400.0 mg/kg/injection, schedule: Q04DX003 (ip), vehicle: other 95 % of control

CCCCOP(=O)(Cc1cc(C)cc(C)c1)OCCCC
inactive: [20] 87 % of control | [21] 101 % of control

Nc1cc(Cl)c(Cl)cc1Cl
inactive: [20] 97 % of control | [21] 101 % of control | [22] 100 % of control

COC(=O)C(OC(C)=O)C1OC(n2cnc3c(=S)nc[nH]c32)C(OC(C)=O)C1OC(C)=O (stereo not given)
inactive: [17] 96 % of control | [18] 102 % of control | [19] 97 % of control

CCCCCCCCCCCCCCCCCCCCCCCCC(O)C(=O)NC(CO)C(O)C(O)CCCCCCCCCCCCCC (stereo not given)
inactive: [23] 88 % of control | [20] 87 % of control | [24] 94 % of control | [21] 92 % of control | endpoint: mean survival time, dose: 400.0 mg/kg/injection, schedule: Q01DX009 (ip), vehicle: saline with Tween-80 88 % of control | [22] 87 % of control

O=C(Cc1ccccc1)CC(O)(C(F)(F)F)C(F)(F)F
inactive: [23] 110 % of control | [24] 100 % of control

CCC(O)Cc1c[nH]c(=O)[nH]c1=O (stereo not given)
inactive: [1] 93 % of control | endpoint: mean survival time, dose: 100.0 mg/kg/injection, schedule: Q01DX009 (ip), vehicle: saline 98 % of control | [20] 94 % of control | [21] 94 % of control

O=C1CCCc2[nH]c(=O)ccc21
inactive: [17] 101 % of control | [18] 94 % of control | [19] 96 % of control

O=C(O)C(O)C(O)C(=O)O.[Cu+2] (stereo not given)
inactive: endpoint: mean survival time, dose: 5.0 mg/kg/injection, schedule: Q01DX001 (ip), vehicle: saline 95 % of control | endpoint: mean survival time, dose: 10.0 mg/kg/injection, schedule: Q01DX001 (ip), vehicle: saline 89 % of control | endpoint: mean survival time, dose: 20.0 mg/kg/injection, schedule: Q01DX001 (ip), vehicle: saline 93 % of control | endpoint: mean survival time, dose: 40.0 mg/kg/injection, schedule: Q01DX001 (ip), vehicle: saline 101 % of control

Cc1ccc(S(=O)(=O)N2CN(S(=O)(=O)c3ccc(C)cc3)CN(S(=O)(=O)c3ccc(C)cc3)C2)cc1
inactive: [9] 94 % of control | [10] 91 % of control | [11] 91 % of control

c1ccc(/C(N=NC(c2ccccc2)(c2ccccc2)c2ccccc2)=C(/N=NC(c2ccccc2)(c2ccccc2)c2ccccc2)c2ccccc2)cc1
inactive: endpoint: mean survival time, dose: 100.0 mg/kg/injection, schedule: Q01DX009 (ip), vehicle: saline sonified 94 % of control | endpoint: mean survival time, dose: 200.0 mg/kg/injection, schedule: Q01DX009 (ip), vehicle: saline sonified 97 % of control | endpoint: mean survival time, dose: 400.0 mg/kg/injection, schedule: Q01DX009 (ip), vehicle: saline sonified 94 % of control

COC(=O)CCC(C(=O)OC)P(=O)(OC(C)C)OC(C)C (stereo not given)
inactive: [17] 96 % of control | [18] 102 % of control | [19] 86 % of control
